SMILES strings stand for the structures. Structures can show the parent of a compound that is named as a salt. Where two headings read alike, the source gives them in different places.

The conditions of series [1]: rcm bond, Grubbs 2nd generation catalyst.
Series [2] deals with SUDHL5. In words: Anti-proliferative effect (CellTiter-Glo, 72 h), SUDHL5. In kind it is cell-based. To be noted: SUDHL5 cells, antiproliferation, 72 h incubation, median, read-out: Antiproli SUDHL5 [M] (median). In short, it runs like this: (§1)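 Cells plated and incubated with compounds for 72 h at 37 °C, with a parallel day 0 reference plate for time-zero signal. Viability read by CellTiter-Glo luminescence after 10 min, measured identically on the day 0 and 72 h plates.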
On the technique in general: In ATP-based viability assays light output follows the ATP content of the culture.

In series [3] the test system is SUDHL10. In words: Induction of caspase-3/7 activity (Caspase-Glo 3/7), SUDHL10. In kind it is cell-based. As to conditions: caspase-3/7 induction, SUDHL10 cells, 3 h treatment, median. In short, it runs like this:
(§2)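 DLBCL lines SUDHL5 and SUDHL10 treated with compounds for 3 h at 37 °C; caspase-3/7 activity read by Caspase-Glo 3/7 luminescence. Medium-only background subtracted; EC50 fitted with bottom fixed at 1 and top fixed at the reference compound's maximal induction.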

Series [4] relates to SUDHL10. In words: Induction of cytotoxicity (CellTiter-Glo, 5 h), SUDHL10.
The next series concerns MV-4-11. In words: Anti-proliferative effect (CellTiter-Glo, 72 h), MV-4-11. The class given is cell-based. As to conditions: Homo sapiens, MV4-11, 72 h, MV-4-11 cells, median, read-out: IC50 antiproliferation assay MV-4-11 [M] (median). In short, it runs like this: as §1
In series [5] the test system is SUDHL5. The series can be described thus: Induction of caspase-3/7 activity (Caspase-Glo 3/7), SUDHL5. The class given is cell-based. To be noted: caspase-3/7 induction, SUDHL5 cells, 3 h treatment, median. In short, it runs like this: as §2
For another series, the system named is OPM2. In words: Anti-proliferative effect (CellTiter-Glo, 72 h), OPM2. To be noted: OPM2 cells, median, read-out: IC50 antiproliferation assay OPM2 [M] (median). The class given is cell-based. In short, it runs like this:
as §1

The subject of series [6] is SUDHL10. The series can be described thus: Anti-proliferative effect (CellTiter-Glo, 72 h), SUDHL10. In kind it is cell-based. To be noted: SUDHL10 cells, antiproliferation, 72 h incubation, median, read-out: Antiproli SUDHL10 [M] (median). In short, it runs like this: as §1
The subject of a further series is A2780. The series can be described thus: Anti-proliferative effect (CellTiter-Glo, 72 h), A2780. In kind it is cell-based. As to conditions: A2780 cells, median, read-out: IC50 antiproliferation assay A2780 [M] (median). In short, it runs like this: as §1
Series [7] concerns SUDHL5. In words: Induction of cytotoxicity (CellTiter-Glo, 5 h), SUDHL5.
For the next series, the target named is MCL-1 (Homo sapiens, UniProt Q07820). The series can be described thus: Protein-protein interaction assay MCL-1/Noxa BH3 peptide (MCL-1 assay), TR-FRET. In kind it is binding. To be noted: MBP-MCL-1 / Noxa BH3-derived peptide, median. In short, it runs like this: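 IC50 came from a 4-parameter fit of the normalized 665/620 nm TR-FRET ratio (anti-MBP Eu-cryptate/streptavidin-XL665). Compounds (0.1 nM–20 μM, duplicates) were preincubated 10 min at 22 °C with 1 nM MBP-MCL-1 in pH 7 Tris/NaCl/KF buffer, then read after 1 h at 22 °C plus overnight at 4 °C.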
Sequence of MCL-1 (Q07820 whole entry): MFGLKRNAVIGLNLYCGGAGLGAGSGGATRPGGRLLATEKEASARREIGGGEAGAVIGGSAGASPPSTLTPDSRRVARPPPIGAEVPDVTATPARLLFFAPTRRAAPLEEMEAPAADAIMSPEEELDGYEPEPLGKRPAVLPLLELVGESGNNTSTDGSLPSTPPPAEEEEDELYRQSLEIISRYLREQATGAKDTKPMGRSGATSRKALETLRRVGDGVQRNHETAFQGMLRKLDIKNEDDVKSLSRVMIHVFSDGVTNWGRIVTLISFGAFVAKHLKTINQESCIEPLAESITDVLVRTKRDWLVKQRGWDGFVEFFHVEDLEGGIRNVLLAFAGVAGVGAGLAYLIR
In general terms: In TR-FRET formats the signal depends on donor and acceptor labels being close together.

As for `CCOC(=O)c1c(CCCOc2cccc3ccccc23)c2cccc3c2n1CC=CCN(Cc1ccccc1)c1c-3c(C)nn1C`, the ring closure, yield of all isomers in [1] (from C=CCN(Cc1ccccc1)c1c(-c2cccc3c(CCCOc4cccc5ccccc45)c(C(=O)OCC)n(CC=C)c23)c(C)nn1C, toluene, 6.11 mM, 90.0 °C, 5.5 h) came to 96.7%.
As to `CCOC(=O)c1c(CCCOc2cccc3ccccc23)c2cccc3c2n1CC=CCOCc1c-3c(COC(C)C)nn1C`, the ring closure, yield of all isomers in series [1] (from C=CCOCc1c(-c2cccc3c(CCCOc4cccc5ccccc45)c(C(=O)OCC)n(CC=C)c23)c(COC(C)C)nn1C, dichloromethane, 77.5 mM, 25.0 °C, 24.0 h) worked out at 89.2%.
`CCOC(=O)c1c(CCCO[Si](C)(C)C(C)(C)C)c2cccc3c2n1CC=CCOCc1c-3c(C)nn1C` (mixture of isomers) returned a ring closure, yield of all isomers in [1] (from C=CCOCc1c(-c2cccc3c(CCCO[Si](C)(C)C(C)(C)C)c(C(=O)OCC)n(CC=C)c23)c(C)nn1C, dichloromethane, 48.0 mM, 25.0 °C, 16.0 h) of 52.7%.
In [1] (from C=CCOCCc1c(-c2cccc3c(CCCOc4cccc5ccccc45)c(C(=O)OCC)n(CC=C)c23)c(C)nn1C, dichloromethane, 50.9 mM, 25.0 °C, 48.0 h), `CCOC(=O)c1c(CCCOc2cccc3ccccc23)c2cccc3c2n1CC=CCOCCc1c-3c(C)nn1C` (mixture of isomers) came in with a ring closure, yield of all isomers of 47.5%.
`CCOC(=O)c1c(CCCOc2cccc3ccccc23)c2cccc3c2n1CC=CCOCc1c-3c(CN2CCOCC2)nn1C` (mixture of isomers) displayed a ring closure, yield of all isomers in [1] (from C=CCOCc1c(-c2cccc3c(CCCOc4cccc5ccccc45)c(C(=O)OCC)n(CC=C)c23)c(CN2CCOCC2)nn1C, dichloromethane, 79.5 mM, 25.0 °C, 48.0 h) of 14.2%.
For `CCOC(=O)c1c(CCCOc2cccc3ccccc23)c2cccc3c2n1CC=CCOCc1c-3c(COCc2ccccc2)nn1C` (mixture of isomers), in series [1] (from C=CCOCc1c(-c2cccc3c(CCCOc4cccc5ccccc45)c(C(=O)OCC)n(CC=C)c23)c(COCc2ccccc2)nn1C, dichloromethane, 76.8 mM, 25.0 °C, 72.0 h), the ring closure, yield of all isomers came to 74.2%.
The molecule `CCOC(=O)c1c(CCCOc2cccc3ccccc23)c2cccc3c2n1CC=CCOCc1c-3c(COc2ccc(C3(O)CCOCC3)cc2)nn1C` (mixture of isomers) returned a ring closure, yield of all isomers in series [1] (from C=CCOCc1c(-c2cccc3c(CCCOc4cccc5ccccc45)c(C(=O)OCC)n(CC=C)c23)c(COc2ccc(C3(O)CCOCC3)cc2)nn1C, dichloromethane, 80.0 mM, 25.0 °C, 72.0 h) of 66.1%.
As to `CCOC(=O)c1c(CCCOc2cccc3ccccc23)c2cccc3c2n1CC=CCOCc1c-3c(COc2ccc(C3(OC)CCOCC3)cc2)nn1C` (mixture of isomers), the ring closure, yield of all isomers in [1] (from C=CCOCc1c(-c2cccc3c(CCCOc4cccc5ccccc45)c(C(=O)OCC)n(CC=C)c23)c(COc2ccc(C3(OC)CCOCC3)cc2)nn1C, dichloromethane, 78.4 mM, 25.0 °C, 72.0 h) was 39.1%.
Turning to `CCOC(=O)c1c(CCCOc2cccc3ccccc23)c2cccc3c2n1CC=CCOCc1c-3c(COc2ccc(N3CCOCC3)cc2)nn1C` (mixture of isomers), the ring closure, yield of all isomers in series [1] (from C=CCOCc1c(-c2cccc3c(CCCOc4cccc5ccccc45)c(C(=O)OCC)n(CC=C)c23)c(COc2ccc(N3CCOCC3)cc2)nn1C, dichloromethane, 39.1 mM, 25.0 °C, 44.0 h) worked out at 53.3%.
`CCOC(=O)c1c(CCCOc2cccc3ccccc23)c2cccc3c2n1CC=CCOCc1c-3c(COc2ccccc2)nn1C` (mixture of isomers) registered a ring closure, yield of all isomers in series [1] (from C=CCOCc1c(-c2cccc3c(CCCOc4cccc5ccccc45)c(C(=O)OCC)n(CC=C)c23)c(COc2ccccc2)nn1C, dichloromethane, 78.3 mM, 25.0 °C, 24.0 h) of 56.9%.
`CCOC(=O)c1c(CCCOc2cccc3ccccc23)c2cccc3c2n1CC=CCOCc1c-3cnn1C` (mixture of isomers): the ring closure, yield of all isomers in series [1] (from C=CCOCc1c(-c2cccc3c(CCCOc4cccc5ccccc45)c(C(=O)OCC)n(CC=C)c23)cnn1C, dichloromethane, 78.2 mM, 25.0 °C, 24.0 h) came to 42.1%.
For `CCOCc1nn(C)c2c1-c1cccc3c(CCCOc4cccc5ccccc45)c(C(=O)OCC)n(c13)CC=CCOC2` (mixture of isomers), the ring closure, yield of all isomers in series [1] (from C=CCOCc1c(-c2cccc3c(CCCOc4cccc5ccccc45)c(C(=O)OCC)n(CC=C)c23)c(COCC)nn1C, dichloromethane, 76.0 mM, 25.0 °C, 24.0 h) stood at 47.3%.
For orientation: EC50 means the concentration that produces a half-maximal response. A low value points to greater potency. Regarding `CN1CCCn2c(C(=O)O)c(CCCOc3cccc4ccccc34)c3cccc(c32)-c2c(CNCC(F)(F)F)nn(C)c2C1` (single isomer, unassigned; enantiomer 2) [Example 131, 7,9-dimethyl-1-[3-(naphthalen-1-yloxy)propyl]-11-{[(2,2,2-trifluoroethyl)amino]methyl}-4,5,6,7,8,9-hexahydropyrazolo[3′,4′:7,8][1,5]diazecino[9,10,1-hi]indole-2-carboxylic acid-N-ethylethanamine Salt (Enantiomer 2)], the IC50 is 1.17e-05 M in the series on SUDHL5 [2]; 2.88e-05 M in the series on SUDHL10 [4] (read-out: Cytotox SUDHL10 [M] (median), SUDHL10 cells, cytotoxicity induction, CellTiter-Glo, 5 h incubation, median); 6.24e-06 M with MV-4-11; 1.71e-05 M in the series on OPM2; 1.16e-05 M in the series on SUDHL10 [6]; 1.48e-05 M in the series on A2780. In addition, the IC50 with SUDHL5 [7] (read-out: Cytotox SUDHL5 [M] (median), SUDHL5 cells, cytotoxicity induction, CellTiter-Glo, 5 h incubation, median) came to 1.46e-05 M; against MCL-1, 0.0191 µM. For the same molecule, the figures for the concentration for a half-maximal effect (EC50) in the series on SUDHL10 [3] and in the series with SUDHL5 [5] were 30.9 µM and 25.9 µM, respectively.
As to `Cn1nc(CN2CCOCC2)c2c1COCCCCn1c(C(=O)O)c(CCCOc3cccc4ccccc34)c3cccc-2c31` (single isomer, unassigned; enantiomer 2) [Example 137, 1-methyl-3-(morpholin-4-ylmethyl)-7-[3-(naphthalen-1-yloxy)propyl]-1,10,11,12,13,15-hexahydropyrazolo[4′,3′:9,10][1,6]oxazacycloundecino[8,7,6-hi]indole-8-carboxylic Acid (Enantiomer 2)], the IC50 in the series on SUDHL5 [2] (Homo sapiens, SU-DHL-5, 72 h) was 2.67e-06 M; with SUDHL10 [4] (Homo sapiens, SU-DHL10, 5 h, read-out: Cytotox SUDHL10 [M] (median), SUDHL10 cells, cytotoxicity induction, CellTiter-Glo, 5 h incubation, median), 3.06e-05 M; in the series on MV-4-11, 6.78e-06 M; in the series on OPM2 (Homo sapiens, OPM-2, 72 h), greater than 3.3e-05 M; with SUDHL10 [6] (Homo sapiens, SU-DHL10, 72 h), 5.9e-06 M; with A2780 (Homo sapiens, A2780, 72 h), greater than 3.3e-05 M. Moreover, the IC50 in the series with SUDHL5 [7] (Homo sapiens, SU-DHL-5, 5 h, read-out: Cytotox SUDHL5 [M] (median), SUDHL5 cells, cytotoxicity induction, CellTiter-Glo, 5 h incubation, median) was 8.98e-06 M; against MCL-1, 0.0107 µM. For the same molecule, the 50% effective concentration (EC50) was determined as 22.1 µM with SUDHL10 [3] (Homo sapiens, SU-DHL10, 3 h) and 12.9 µM in the series with SUDHL5 [5] (Homo sapiens, SU-DHL-5, 3 h).
